Assay results published in US20220133753A1, “COMPOSITIONS AND METHODS USEFUL FOR TREATING DISEASES CHARACTERIZED BY INSUFFICIENT PANTOTHENATE KINASE ACTIVITY” (Comet Therapeutics, Inc., priority 2016, published 2022).

Assays:
HEK293 cells = assay: HoPan treatment of mammalian HEK293 cells in combination with CoA or 4′-phosphopantetheine; format: cell-based, human; conditions: HoPan treated HEK293 cells, compound added to the medium
Method: HoPan treatment of mammalian HEK293 Cells in combination with CoA and 4′-phosphopantetheine treatment: HEK293 cells were maintained in dMEM (Invitrogen) supplemented with 10% fetal calf serum (Gibco) and antibiotics (penicillin/streptomycin, Invitrogen). For HoPan treatment, cells were cultured in custom made dMEM without vitamin B5 (Thermo Scientific) supplemented with dialyzed FCS (Thermo Scientific). CoA or PPanSH was added to HEK293 cells for the final concentration of 25 uM, either in the presence or absence of HoPan (0.5 mM) for 4 days, followed by analysis for phenotype and rescue efficiency of CoA and PPanSH.
Western blot analysis and Antibodies: For Western blot analysis, cells were collected and washed with phosphate buffer saline (PBS), followed by centrifugation. The cells were lysed and sonicated in 1X Laemmli Sample Buffer and boiled for 5 min with 5% β-mercaptoethanol (Sigma). Protein content was determined using DC protein assay (BioRad). Equal amounts of protein were loaded on a 10 or 12.5% SDS-PAGE gel, transferred onto PVDF membranes and blocked with 5% milk in PBS/0.1% Tween, followed by overnight incubation with primary antibodies. The primary antibodies used were: rabbit-anti dPANK/fbl, 1:4000 Eurogentec custom made as described previously5, mouse anti-tubulin (Sigma Aldrich Cat no: T5168, 1:5000), anti-acetyl-Histone3 (Active Motif Cat no: 39139, 1:2000), anti GAPDH (Fitzgerald Cat no: 10R-G109a, 1:10000), rabbit anti COASY (Abcam Cat no: AB129012, 1:1000). Appropriate HRP-conjugated secondary antibodies (Amersham) were used and detection was performed using enhanced chemi-luminescence (Pierce cat nog: 32106) and Amersham hyperfilm (GE Healthcare). Band intensities were quantified with Image-studio software.

[1] = tested on: homozygous dPANK/fbl1 and dPANK/fblnull mutants; assay: Drosophila dPANK/fbl mutants, lifespan and development with CoA or Vitamin B5 in the food; format: in vivo, Drosophila melanogaster; conditions: CoA added to the food
Method: Drosophila Maintenance and Crosses: Drosophila melanogaster stocks/crosses were raised on standard cornmeal agar fly food (containing water, agar 17 g/L, sugar 54 g/L, yeast extract 26 g/L and nipagin 1.3 g/L) at 25° C. The stocks were either obtained from the Bloomington Stock Centre (Indiana University, USA), VDRC (Vienna Drosophila RNAi Collection, Vienna, Austria) or from the Exelixis Collection (Harvard Medical School) and rebalanced to generate eGFP-positive balancers. The stocks used were: w1118; dPANK/fbl1 hypomorph5,6; dPANK/fblnull (y[1] w[*]; Mi{y[+mDint2]=MIC}fbl[MI04001]/TM3, Sb[1] Ser[1], Bloomington 36941); dPPCDC mutant (w[1118], PBac{w[+mC]=WH}Ppcdc[f00839]/CyO, Bloomington 18377); UAS-dPPCDCRNAi line (VDRC 104495); dCOASY mutant (PBac{RB}Ppat-Dpck[e00492], Exelixis). The UAS-RNAi constructs were expressed ubiquitously using the Actin-Gal4 drivers (y[1] w[*]; P{w[+mC]=Act5C-GAL4}25FO1/CyO, y[+], Bloomington 4414). […]
Drosophila Life Span: One-day old adults of Drosophila homozygous mutants or RNAi-constructs expressing lines, were collected with appropriate controls and were kept on standard fly food at 25° C. with or without CoA or Vitamin B5 (Sigma) at necessary concentration (50 ul added on top of the fly food and dried). The flies were counted every 12-24 hrs and flipped to new fly food vials with or without CoA or Vitamin B5.

[2] = tested on: Drosophila w1118 control fly line; assay: Drosophila HoPan toxicity and CoA rescue experiment (eclosion); format: in vivo; conditions: CoA added to the food of the larvae
Excerpt: Drosophila HoPan Toxicity and CoA Rescue Experiment: One week old w1118 flies (in the ratio 10 females and 5 males) were kept in vials containing standard fly food with or without HoPan and CoA at indicated concentrations. The flies were allowed to lay eggs for 2 days, after which the adults were discarded. The resulting offspring were allowed to develop. The numbers of flies which eclosed were counted to evaluate HoPan toxicity and CoA rescue efficiency.

[3] = tested on: C. elegans pantothenate kinase (pnk-1) mutants; assay: C. elegans pnk-1 mutant motility and lifespan with CoA in the food; format: in vivo, Caenorhabditis elegans; conditions: CoA added to the food
Method: C. elegans Media and Strains: Standard culturing conditions were used for C. elegans maintenance at 20° C. N2 strain was used as a wild-type control. VC927, the PANK deletion mutant pnk-1 (ok1435)I/hT2[bli-4(e937) let-? (q782)qIs48](I; III), was obtained from the Caenorhabditis Genetics Center. To obtain synchronous cultures, worms were bleached with hypochlorite, and allowed to hatch in M9 buffer (3 g KH2PO4, 6 g Na2HPO4, 5 g NaCl, 1 ml 1 M MgSO4, H2O to 1 liter) overnight and cultured on standard Nematode Growth Medium (NGM) plates seeded with OP50 strain of Escherichia coli.
C. elegans Motility Assay: After synchronization, L1 C. elegans were grown on control NMG plates or NGM plates containing various concentrations of CoA. One-day old adults were placed in a drop of M9 buffer and allowed to recover for 30 sec. During the following 30 sec, the number of body bends was counted. A movement was scored as a bend when both the anterior and posterior ends of the animal turned to the same side. At least 15 worms were scored per condition and each experiment was repeated thrice.

## CC(C)(COP(=O)(O)OP(=O)(O)OC[C@H]1O[C@@H](n2cnc3c(N)ncnc32)[C@H](O)[C@@H]1OP(=O)(O)O)[C@@H](O)C(=O)NCCC(=O)NCCS [CoA, Coenzyme A]
HEK293 cells
  rescue of HoPan-induced impaired histone acetylation: rescued
  rescue of HoPan-induced reduction in cell count: rescued
HEK293 cells; HPLC
  intracellular CoA level: restored the intracellular concentration of CoA
[1]; homozygous dPANK/fbl1 mutants, from 20 days without
  lifespan with CoA: 40 days
[1]; homozygous dPANK/fblnull mutants
  development with CoA: extended development from the L2 stage to early pupal development
[2]
  rescue of HoPan-induced phenotype (larval lethality, eclosion rate): fully rescued
[3]
  lifespan of pnk-1 mutants: improved these phenotypes significantly
  motility of pnk-1 mutants: improved these phenotypes significantly
